Measurements taken from ChEMBL document CHEMBL1765043, “New synthetic triterpenoids: potent agents for prevention and treatment of tissue injury caused by inflammatory and oxidative stress” (J Nat Prod, 2011).

The molecules below were run on RAW264.7 (assay: Antiinflammatory activity against IFN-gamma, TNF-alpha and IL-1-stimulated mouse RAW264.7 cells assessed as inhibition of cellular iNOS synthesis).
Format: functional, cell-based

IC50 [µM]	Structure (SMILES)
6	C[C@H]1[C@H](C)CC[C@]2(C(=O)O)CC[C@]3(C)C(=CC[C@@H]4[C@@]5(C)C=CC(=O)C(C)(C)[C@@H]5CC[C@]43C)[C@H]12
17.6	C[C@H]1[C@H](C)CC[C@]2(C(=O)O)CC[C@]3(C)C(=CC(=O)[C@@H]4[C@@]5(C)C=CC(=O)C(C)(C)[C@@H]5CC[C@]43C)[C@H]12
0.2	CC1(C)CC[C@]2(C(=O)O)CC[C@]3(C)[C@H](C(=O)C=C4[C@@]5(C)C=CC(=O)C(C)(C)[C@@H]5CC[C@]43C)[C@@H]2C1
